Test [1] deals with CRBN (Homo sapiens, UniProt Q96SW2). The experiment in a line: CRBN displacement assay Format 1 (fluorescence polarization, BodipyFL-lenalidomide probe Compound HH). The test is classed as binding. In outline: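 Compound and CRBN protein (nominally 100 nM) were preincubated for 45 min at room temperature before a 5 nM BodipyFL-lenalidomide probe started competition, with 0.9% DMSO final. Polarization was measured 45 min later, exciting at 485 nm and reading 520 nm. AC50 came from a logistic fit with Hill coefficient.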
Sequence of CRBN (Q96SW2 whole entry): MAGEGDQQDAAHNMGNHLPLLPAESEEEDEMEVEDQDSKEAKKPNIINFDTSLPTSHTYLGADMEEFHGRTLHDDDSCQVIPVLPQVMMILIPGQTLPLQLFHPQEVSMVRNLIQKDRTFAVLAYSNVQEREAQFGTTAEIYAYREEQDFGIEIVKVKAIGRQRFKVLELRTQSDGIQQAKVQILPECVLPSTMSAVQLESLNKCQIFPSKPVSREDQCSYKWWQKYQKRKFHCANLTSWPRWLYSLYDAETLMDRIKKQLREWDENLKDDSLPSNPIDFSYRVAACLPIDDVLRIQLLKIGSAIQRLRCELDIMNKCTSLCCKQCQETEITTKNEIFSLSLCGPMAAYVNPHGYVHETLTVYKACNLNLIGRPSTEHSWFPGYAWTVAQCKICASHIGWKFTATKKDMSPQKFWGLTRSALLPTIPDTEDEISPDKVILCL
(Fluorescence polarisation rises when a labelled molecule tumbles more slowly, as on binding a larger partner.)

Test [2] relates to HEK293 and TMD8 cells. Briefly: Proteomics experiment (TMT quantification mass spectrometry of protein abundance). The settings on record: 1 μM, 6 hours, FIG. 3E. The test is classed as cell-based. The procedure:
HEK293 and TMD8 cells were treated with 1 μM dasatinib, 1 μM compound 06, 1 μM compound 07 or DMSO and protein abundance was analyzed using TMT quantification mass spectrometry. Significant changes were assessed by limma, log 2 fold changes are shown on the x-axis and p-values on the y-axis. Proteins with kinase annotations in UniProt are shown as squares and kinases with a log2 fold change≤−0.6 and a p-value≤0.01 are labeled with the corresponding gene name.
HEK293 and TMD8 cells were treated for 6 hours with DMSO (3 replicates), 1 μM dasatinib (2 replicates), 1 μM compound 06 (3 replicates) and 1 μM compound 07 (3 replicates), respectively. TMT11plex-labeled peptides were generated with the PreOmics iST-NHS kit according to the manufacturer's protocol (PreOmics, Germany). […] The 24 fractions were analyzed with a 25 cm×75 μm ID, 1.6 μm C18 Aurora Series emitter column (IonOpticks, Australia) on an EASY-nLC 1200 system coupled to an Orbitrap™ Fusion Lumos mass spectrometer (Thermo Fisher Scientific, USA). […] The Proteome Discoverer™ 2.1 software and the SEQUEST algorithm was used for protein identification and relative quantification. Log2 fold changes of protein abundances and p-values were calculated in Python and R with the limma package (Ritchie M E et al. Limma powers differential expression analyses for RNA-sequencing and microarray studies. Nucleic Acids Res. 2015, 43(7):e47).

SMILES strings stand for the structures.

Experimental findings from patent US20220387602A1, “BIFUNCTIONAL DEGRADERS AND THEIR METHODS OF USE” (NOVARTIS AG, priority 2019, published 2022) are described below.

The AC50 is the midpoint of the concentration-response curve, whichever way the signal moves. Regarding `COc1ccc(C(=O)N2CCC3(CCN(C(=O)CCCCCCCN4CCN(c5cc(Nc6ncc(C(=O)Nc7c(C)cccc7Cl)s6)nc(C)n5)CC4)CC3)CC2)cc1N1CCC(=O)NC1=O` [compound 06, N-(2-chloro-6-methylphenyl)-2-((6-(4-(8-(9-(3-(2,4-dioxotetrahydropyrimidin-1(2H)-yl)-4-methoxybenzoyl)-3,9-diazaspiro[5.5]undecan-3-yl)-8-oxooctyl)piperazin-1-yl)-2-methylpyrimidin-4-yl)amino)thiazole-5-carboxamide], the AC50 in test [1] was found to be 162 nM. In addition, the “degradation of bound kinase targets (proteomics)” value in test [2] was “able to degrade several of the targets to which they bind”.
The like results for `COc1ccc(C(=O)N2CCC3(CCN(C(=O)CN4CCN(c5cc(Nc6ncc(C(=O)Nc7c(C)cccc7Cl)s6)nc(C)n5)CC4)CC3)CC2)cc1N1CCC(=O)NC1=O` [compound 07, N-(2-chloro-6-methylphenyl)-2-((6-(4-(2-(9-(3-(2,4-dioxotetrahydropyrimidin-1(2H)-yl)-4-methoxybenzoyl)-3,9-diazaspiro[5.5]undecan-3-yl)-2-oxoethyl)piperazin-1-yl)-2-methylpyrimidin-4-yl)amino)thiazole-5-carboxamide] were, in that order, 496 nM and “able to degrade several of the targets to which they bind”.
